Experimental data published in article PMC6166781 (Nature structural & molecular biology, 2017).
Numbering of substitutions follows the chain as printed.

Legend:
α1β3F301Aγ2 GABAAR = α1β3F301Aγ2 GABAAR (Homo sapiens, UniProt P14867+P28472, F326A); assay type: cell-based
α1β3γ2 GABAAR = α1β3γ2 GABAAR (Homo sapiens, UniProt P14867+P28472); assay type: cell-based
α1β3L297Aγ2 GABAAR = α1β3L297Aγ2 GABAAR (Homo sapiens, UniProt P14867+P28472, L322A); assay type: cell-based; conditions: for loss of sensitivity to potentiation versus wild type: L297A vs WT
GABAAR heteromers = conditions: cited from earlier work
α5TMD Q245W = molecular target: T1, α5TMD Q245W (Homo sapiens, UniProt P28472, A271S/A273P/A277V/D270E/DELINS289-473LSISARNSLPKVAYATAMDWFIAVCYAFVFSALIEFATVNYFTKSQPARAAKIDKMSRIVFPVLFGTFNLVYWATYLNREPVIKGAASPK/I247V/I257T/I267L/I280V/L248I/L256M/L278F/M252L/S254C/S272V/T258V/V276T/Y269R); assay: Thermostability binding experiment
T1 sequence (P28472 with tags, fused parts or gaps I247V/L248I/M252L/S254C/L256M/I257T/T258V/I267L/Y269R/D270E/A271S/S272V/A273P/V276T/A277V/L278F/I280V): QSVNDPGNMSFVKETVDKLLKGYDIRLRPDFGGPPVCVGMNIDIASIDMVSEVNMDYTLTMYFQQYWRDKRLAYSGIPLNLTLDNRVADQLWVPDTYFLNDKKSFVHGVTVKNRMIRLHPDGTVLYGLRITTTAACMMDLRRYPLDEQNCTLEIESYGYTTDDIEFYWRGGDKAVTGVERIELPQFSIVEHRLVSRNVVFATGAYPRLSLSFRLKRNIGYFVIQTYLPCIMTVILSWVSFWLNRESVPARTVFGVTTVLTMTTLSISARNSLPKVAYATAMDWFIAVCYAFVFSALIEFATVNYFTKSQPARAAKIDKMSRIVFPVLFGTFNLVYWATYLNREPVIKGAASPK

[1] = molecular target: T2, α5TMD T287K (chimeric GABAAR, β3 subunit ECD fused to α5 subunit TMD) (Homo sapiens, UniProt P28472, A271S/A273P/A277V/D270E/DELINS289-473LSISARNSLPKVAYAKAMDWFIAVCYAFVFSALIEFATVNYFTKSQPARAAKIDKMSRIVFPVLFGTFNLVYWATYLNREPVIKGAASPK/I247V/I257T/I267L/I280V/L248I/L256M/L278F/M252L/S254C/S272V/T258V/V276T/W262Q/Y269R); assay type: cell-based; conditions: EC50 of potentiation of histamine EC10-15 responses, Fig. 1e; n = 6
T2 sequence (P28472 with tags, fused parts or gaps I247V/L248I/M252L/S254C/L256M/I257T/T258V/W262Q/I267L/Y269R/D270E/A271S/S272V/A273P/V276T/A277V/L278F/I280V): T1 sequence (P28472 with tags, fused parts or gaps I247V/L248I/M252L/S254C/L256M/I257T/T258V/I267L/Y269R/D270E/A271S/S272V/A273P/V276T/A277V/L278F/I280V) with W237Q, T279K

[2] = molecular target: T3, α5TMD T287K (chimeric GABAAR, β3 subunit ECD fused to α5 subunit TMD) (Homo sapiens, UniProt P28472, A271S/A273P/A277V/D270E/DELINS289-473[…]/I247V/I257T/I267L/I280V/L248I/L256M/L278F/M252L/S254C/S272V/T258V/V276T/W262Q/Y269R); assay type: cell-based; conditions: T287K background; n = 6
T3 sequence (P28472 with tags, fused parts or gaps I247V/L248I/M252L/S254C/L256M/I257T/T258V/W262Q/I267L/Y269R/D270E/A271S/S272V/A273P/V276T/A277V/L278F/I280V): T1 sequence (P28472 with tags, fused parts or gaps I247V/L248I/M252L/S254C/L256M/I257T/T258V/I267L/Y269R/D270E/A271S/S272V/A273P/V276T/A277V/L278F/I280V) with W237Q, T279K

α5TMD T287K Q245L = molecular target: T4, α5TMD T287K Q245L (Homo sapiens, UniProt P28472, A271S/A273P/A277V/D270E/DELINS289-473[…]/I247V/I257T/I267L/I280V/L248I/L256M/L278F/M252L/S254C/S272V/T258V/V276T/W262L/Y269R); assay type: cell-based; conditions: leucine substitution of M1 Gln245
T4 sequence (P28472 with tags, fused parts or gaps I247V/L248I/M252L/S254C/L256M/I257T/T258V/W262L/I267L/Y269R/D270E/A271S/S272V/A273P/V276T/A277V/L278F/I280V): T1 sequence (P28472 with tags, fused parts or gaps I247V/L248I/M252L/S254C/L256M/I257T/T258V/I267L/Y269R/D270E/A271S/S272V/A273P/V276T/A277V/L278F/I280V) with W237L, T279K

α5TMD T287K W249L = molecular target: T5, α5TMD T287K W249L (Homo sapiens, UniProt P28472, A271S/A273P/A277V/D270E/DELINS289-473LSISARNSLPKVAYAKAMDWFIAVCYAFVFSALIEFATVNYFTKSQPARAAKIDKMSRIVFPVLFGTFNLVYWATYLNREPVIKGAASPK/I247V/I257T/I267L/I280V/L248I/L256M/L278F/M252L/S254C/S272V/T258V/V276T/W262Q/W266L/Y269R); assay type: cell-based
T5 sequence (P28472 with tags, fused parts or gaps I247V/L248I/M252L/S254C/L256M/I257T/T258V/W262Q/W266L/I267L/Y269R/D270E/A271S/S272V/A273P/V276T/A277V/L278F/I280V): T1 sequence (P28472 with tags, fused parts or gaps I247V/L248I/M252L/S254C/L256M/I257T/T258V/I267L/Y269R/D270E/A271S/S272V/A273P/V276T/A277V/L278F/I280V) with W237Q, W241L, T279K

α5TMD [3] = molecular target: T6, α5TMD (Homo sapiens, UniProt P28472+P31644, DEL351-357/DEL363-425/E358R/G348Q/K256N/R347S/W349P); assay: Thermostability binding experiment
T6 sequence (P28472+P31644 with tags, fused parts or gaps P31644:K256N/P31644:R347S/P31644:G348Q/P31644:W349P/P31644:DEL351-357/P31644:E358R/P31644:DEL363-425): T1 sequence (P28472 with tags, fused parts or gaps I247V/L248I/M252L/S254C/L256M/I257T/T258V/I267L/Y269R/D270E/A271S/S272V/A273P/V276T/A277V/L278F/I280V) with W237Q

α5TMD Q245L = molecular target: T7, α5TMD Q245L (Homo sapiens, UniProt P28472, A271S/A273P/A277V/D270E/DELINS289-473LSISARNSLPKVAYATAMDWFIAVCYAFVFSALIEFATVNYFTKSQPARAAKIDKMSRIVFPVLFGTFNLVYWATYLNREPVIKGAASPK/I247V/I257T/I267L/I280V/L248I/L256M/L278F/M252L/S254C/S272V/T258V/V276T/W262L/Y269R); assay: Thermostability binding experiment
T7 sequence (P28472 with tags, fused parts or gaps I247V/L248I/M252L/S254C/L256M/I257T/T258V/W262L/I267L/Y269R/D270E/A271S/S272V/A273P/V276T/A277V/L278F/I280V): T1 sequence (P28472 with tags, fused parts or gaps I247V/L248I/M252L/S254C/L256M/I257T/T258V/I267L/Y269R/D270E/A271S/S272V/A273P/V276T/A277V/L278F/I280V) with W237L

α5TMD T287K T309A = molecular target: T8, α5TMD T287K T309A (Homo sapiens, UniProt P28472, A271S/A273P/A277V/D270E/DELINS289-473LSISARNSLPKVAYAKAMDWFIAVCYAFVFSALIEFAAVNYFTKSQPARAAKIDKMSRIVFPVLFGTFNLVYWATYLNREPVIKGAASPK/I247V/I257T/I267L/I280V/L248I/L256M/L278F/M252L/S254C/S272V/T258V/V276T/W262Q/Y269R); assay type: cell-based
T8 sequence (P28472 with tags, fused parts or gaps I247V/L248I/M252L/S254C/L256M/I257T/T258V/W262Q/I267L/Y269R/D270E/A271S/S272V/A273P/V276T/A277V/L278F/I280V): T1 sequence (P28472 with tags, fused parts or gaps I247V/L248I/M252L/S254C/L256M/I257T/T258V/I267L/Y269R/D270E/A271S/S272V/A273P/V276T/A277V/L278F/I280V) with W237Q, T279K, T301A

α5TMD [4] = molecular target: T6, α5TMD; assay: Whole-cell patch-clamp of α5TMD in transfected HEK-293T cells; assay type: cell-based

Compound: CC(=O)[C@H]1CC[C@H]2[C@@H]3CC[C@H]4C[C@H](O)CC[C@]4(C)[C@H]3CC[C@]12C [allopregnanolone]
- EC50 (α1β3F301Aγ2 GABAAR): 260 ± 60 nM
- EC50 (α1β3γ2 GABAAR): 280 ± 40 nM
- EC50 (α1β3L297Aγ2 GABAAR): 1600 ± 200 nM
- loss of sensitivity to potentiation versus wild type (α1β3L297Aγ2 GABAAR): 5 fold

Compound: CC(=O)[C@H]1CC[C@H]2[C@@H]3CC[C@@H]4C[C@@H](O)CC[C@]4(C)[C@H]3CC[C@]12C [epipregnanolone]
- potentiation of GABAAR heteromers (qualitative) (GABAAR heteromers): weak potentiator

Compound: CC(=O)[C@H]1CC[C@H]2[C@@H]3CC[C@@H]4C[C@H](O)CC[C@]4(C)[C@H]3CC[C@]12C [pregnanolone]
- EC50 (α5TMD Q245W): > 30000 nM
- EC50 (α1β3F301Aγ2 GABAAR): 280 ± 40 nM
- EC50 [1]: 1300 ± 100 nM
- potentiation of submaximal (EC10-15) histamine doses [2]: 325 ± 104%
- EC50 (α1β3γ2 GABAAR): 240 ± 20 nM
- potentiation of histamine EC10-15 responses (α5TMD T287K Q245L): ablated
- EC50 (α5TMD T287K W249L): > 10000 nM
- EC50 (α5TMD [3]): 5500 ± 300 nM
- EC50 (α5TMD Q245L): > 30000 nM
- EC50 (α5TMD T287K T309A): 2200 ± 300 nM
- EC50 (α1β3L297Aγ2 GABAAR): 2500 ± 200 nM
- loss of sensitivity to potentiation versus wild type (α1β3L297Aγ2 GABAAR): 10 fold

Compound: NCCc1c[nH]cn1 [histamine]
- agonist effect on receptor current (α5TMD [4]; Fig. 1a): activated and then desensitised

Compound: picrotoxin
- effect on spontaneous inward leak current (α5TMD [4]; Fig. 1b): blocks a spontaneous inward leak current
